Measured values taken from the kinase profiling compilation of Christmann-Franck et al. (2016).

Experiments:
Assay in all cases: radiometric filter-binding kinase assay, Kinase HotSpot
Conditions in all cases: compound 0.5 µM; ATP 10 µM
[1] = biological target: ADRBK1 (human) (UniProt P25098)
[2] = biological target: AKT2 (human) (UniProt P31751)
[3] = biological target: AURKA (human) (UniProt O14965)
[4] = biological target: CAMK1G (human) (UniProt Q96NX5)
[5] = biological target: CAMKK2 (human) (UniProt Q96RR4)
[6] = biological target: CDC42BPA (human) (UniProt Q5VT25)
[7] = biological target: CDK6 CCND1 (human) (UniProt Q00534+P24385)
[8] = biological target: CSNK1A1 (human) (UniProt P48729)
[9] = biological target: EPHA3 (human) (UniProt P29320)
[10] = biological target: EPHA5 (human) (UniProt P54756)
[11] = biological target: FRK (human) (UniProt P42685)
[12] = biological target: GRK4 (human) (UniProt P32298)
[13] = biological target: GSK3A (human) (UniProt P49840)
[14] = biological target: GSK3B (human) (UniProt P49841)
[15] = biological target: HCK (human) (UniProt P08631)
[16] = biological target: HIPK4 (human) (UniProt Q8NE63)
[17] = biological target: LRRK2 (human) (UniProt Q5S007)
[18] = biological target: MAP3K8 (human) (UniProt P41279)
[19] = biological target: MAPK10 (human) (UniProt P53779)
[20] = biological target: MAPKAPK5 (human) (UniProt Q8IW41)
[21] = biological target: MARK1 (human) (UniProt Q9P0L2)
[22] = biological target: MARK2 (human) (UniProt Q7KZI7)
[23] = biological target: MLTK (human) (UniProt Q9NYL2)
[24] = biological target: MUSK (human) (UniProt O15146)
[25] = biological target: MYLK2 (human) (UniProt Q9H1R3)
[26] = biological target: NLK (human) (UniProt Q9UBE8)
[27] = biological target: NTRK1 (human) (UniProt P04629)
[28] = biological target: PAK6 (human) (UniProt Q9NQU5)
[29] = biological target: PDPK1 (human) (UniProt O15530)
[30] = biological target: PHKG2 (human) (UniProt P15735)
[31] = biological target: PLK1 (human) (UniProt P53350)
[32] = biological target: PRKACA (human) (UniProt P17612)
[33] = biological target: RPS6KA2 KD1 KD2 (human) (UniProt Q15349)
[34] = biological target: RPS6KB2 (human) (UniProt Q9UBS0)
[35] = biological target: SRPK1 (human) (UniProt Q96SB4)
[36] = biological target: STK39 (human) (UniProt Q9UEW8)
[37] = biological target: STK4 (human) (UniProt Q13043)
[38] = biological target: TAOK2 (human) (UniProt Q9UL54)
[39] = biological target: TAOK3 (human) (UniProt Q9H2K8)
[40] = biological target: YES1 (human) (UniProt P07947)
[41] = biological target: EPHB4 (human) (UniProt P54760)

Sequence of SRPK1 (human) (Q96SB4 whole entry, looked up): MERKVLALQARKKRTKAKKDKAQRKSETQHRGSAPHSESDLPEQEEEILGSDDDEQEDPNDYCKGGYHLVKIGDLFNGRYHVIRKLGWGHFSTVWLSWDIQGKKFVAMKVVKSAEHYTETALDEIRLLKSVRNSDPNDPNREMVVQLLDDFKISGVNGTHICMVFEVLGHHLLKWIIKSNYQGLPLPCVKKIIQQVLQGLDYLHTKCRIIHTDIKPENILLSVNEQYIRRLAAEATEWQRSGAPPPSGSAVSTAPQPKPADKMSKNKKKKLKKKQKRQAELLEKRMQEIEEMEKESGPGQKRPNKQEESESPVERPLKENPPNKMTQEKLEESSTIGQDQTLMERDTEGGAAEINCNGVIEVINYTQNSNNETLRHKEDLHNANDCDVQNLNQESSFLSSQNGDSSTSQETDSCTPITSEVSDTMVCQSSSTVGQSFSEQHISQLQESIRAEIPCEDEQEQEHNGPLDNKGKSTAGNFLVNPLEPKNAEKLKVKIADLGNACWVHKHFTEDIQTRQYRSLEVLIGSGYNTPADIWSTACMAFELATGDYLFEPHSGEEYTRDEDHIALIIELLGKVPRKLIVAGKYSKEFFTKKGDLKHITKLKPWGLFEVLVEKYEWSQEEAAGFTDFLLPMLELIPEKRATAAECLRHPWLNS
Sequence of GRK4 (human) (P32298 whole entry, looked up): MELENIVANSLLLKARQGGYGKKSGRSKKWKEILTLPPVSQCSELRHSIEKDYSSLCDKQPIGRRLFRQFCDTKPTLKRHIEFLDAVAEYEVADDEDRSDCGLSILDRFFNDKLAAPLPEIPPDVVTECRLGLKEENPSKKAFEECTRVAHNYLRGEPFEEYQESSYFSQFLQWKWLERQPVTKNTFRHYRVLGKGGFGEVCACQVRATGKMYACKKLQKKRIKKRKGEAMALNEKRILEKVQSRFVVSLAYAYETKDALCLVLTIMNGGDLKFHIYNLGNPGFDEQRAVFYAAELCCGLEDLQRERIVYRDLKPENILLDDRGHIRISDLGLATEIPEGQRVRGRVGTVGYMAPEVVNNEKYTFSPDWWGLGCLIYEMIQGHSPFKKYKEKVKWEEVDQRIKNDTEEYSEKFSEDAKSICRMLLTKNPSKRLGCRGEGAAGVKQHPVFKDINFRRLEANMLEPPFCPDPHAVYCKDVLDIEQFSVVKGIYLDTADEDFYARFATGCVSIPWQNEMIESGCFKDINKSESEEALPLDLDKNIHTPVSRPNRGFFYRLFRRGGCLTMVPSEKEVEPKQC
Sequence of LRRK2 (human) (Q5S007 whole entry, looked up): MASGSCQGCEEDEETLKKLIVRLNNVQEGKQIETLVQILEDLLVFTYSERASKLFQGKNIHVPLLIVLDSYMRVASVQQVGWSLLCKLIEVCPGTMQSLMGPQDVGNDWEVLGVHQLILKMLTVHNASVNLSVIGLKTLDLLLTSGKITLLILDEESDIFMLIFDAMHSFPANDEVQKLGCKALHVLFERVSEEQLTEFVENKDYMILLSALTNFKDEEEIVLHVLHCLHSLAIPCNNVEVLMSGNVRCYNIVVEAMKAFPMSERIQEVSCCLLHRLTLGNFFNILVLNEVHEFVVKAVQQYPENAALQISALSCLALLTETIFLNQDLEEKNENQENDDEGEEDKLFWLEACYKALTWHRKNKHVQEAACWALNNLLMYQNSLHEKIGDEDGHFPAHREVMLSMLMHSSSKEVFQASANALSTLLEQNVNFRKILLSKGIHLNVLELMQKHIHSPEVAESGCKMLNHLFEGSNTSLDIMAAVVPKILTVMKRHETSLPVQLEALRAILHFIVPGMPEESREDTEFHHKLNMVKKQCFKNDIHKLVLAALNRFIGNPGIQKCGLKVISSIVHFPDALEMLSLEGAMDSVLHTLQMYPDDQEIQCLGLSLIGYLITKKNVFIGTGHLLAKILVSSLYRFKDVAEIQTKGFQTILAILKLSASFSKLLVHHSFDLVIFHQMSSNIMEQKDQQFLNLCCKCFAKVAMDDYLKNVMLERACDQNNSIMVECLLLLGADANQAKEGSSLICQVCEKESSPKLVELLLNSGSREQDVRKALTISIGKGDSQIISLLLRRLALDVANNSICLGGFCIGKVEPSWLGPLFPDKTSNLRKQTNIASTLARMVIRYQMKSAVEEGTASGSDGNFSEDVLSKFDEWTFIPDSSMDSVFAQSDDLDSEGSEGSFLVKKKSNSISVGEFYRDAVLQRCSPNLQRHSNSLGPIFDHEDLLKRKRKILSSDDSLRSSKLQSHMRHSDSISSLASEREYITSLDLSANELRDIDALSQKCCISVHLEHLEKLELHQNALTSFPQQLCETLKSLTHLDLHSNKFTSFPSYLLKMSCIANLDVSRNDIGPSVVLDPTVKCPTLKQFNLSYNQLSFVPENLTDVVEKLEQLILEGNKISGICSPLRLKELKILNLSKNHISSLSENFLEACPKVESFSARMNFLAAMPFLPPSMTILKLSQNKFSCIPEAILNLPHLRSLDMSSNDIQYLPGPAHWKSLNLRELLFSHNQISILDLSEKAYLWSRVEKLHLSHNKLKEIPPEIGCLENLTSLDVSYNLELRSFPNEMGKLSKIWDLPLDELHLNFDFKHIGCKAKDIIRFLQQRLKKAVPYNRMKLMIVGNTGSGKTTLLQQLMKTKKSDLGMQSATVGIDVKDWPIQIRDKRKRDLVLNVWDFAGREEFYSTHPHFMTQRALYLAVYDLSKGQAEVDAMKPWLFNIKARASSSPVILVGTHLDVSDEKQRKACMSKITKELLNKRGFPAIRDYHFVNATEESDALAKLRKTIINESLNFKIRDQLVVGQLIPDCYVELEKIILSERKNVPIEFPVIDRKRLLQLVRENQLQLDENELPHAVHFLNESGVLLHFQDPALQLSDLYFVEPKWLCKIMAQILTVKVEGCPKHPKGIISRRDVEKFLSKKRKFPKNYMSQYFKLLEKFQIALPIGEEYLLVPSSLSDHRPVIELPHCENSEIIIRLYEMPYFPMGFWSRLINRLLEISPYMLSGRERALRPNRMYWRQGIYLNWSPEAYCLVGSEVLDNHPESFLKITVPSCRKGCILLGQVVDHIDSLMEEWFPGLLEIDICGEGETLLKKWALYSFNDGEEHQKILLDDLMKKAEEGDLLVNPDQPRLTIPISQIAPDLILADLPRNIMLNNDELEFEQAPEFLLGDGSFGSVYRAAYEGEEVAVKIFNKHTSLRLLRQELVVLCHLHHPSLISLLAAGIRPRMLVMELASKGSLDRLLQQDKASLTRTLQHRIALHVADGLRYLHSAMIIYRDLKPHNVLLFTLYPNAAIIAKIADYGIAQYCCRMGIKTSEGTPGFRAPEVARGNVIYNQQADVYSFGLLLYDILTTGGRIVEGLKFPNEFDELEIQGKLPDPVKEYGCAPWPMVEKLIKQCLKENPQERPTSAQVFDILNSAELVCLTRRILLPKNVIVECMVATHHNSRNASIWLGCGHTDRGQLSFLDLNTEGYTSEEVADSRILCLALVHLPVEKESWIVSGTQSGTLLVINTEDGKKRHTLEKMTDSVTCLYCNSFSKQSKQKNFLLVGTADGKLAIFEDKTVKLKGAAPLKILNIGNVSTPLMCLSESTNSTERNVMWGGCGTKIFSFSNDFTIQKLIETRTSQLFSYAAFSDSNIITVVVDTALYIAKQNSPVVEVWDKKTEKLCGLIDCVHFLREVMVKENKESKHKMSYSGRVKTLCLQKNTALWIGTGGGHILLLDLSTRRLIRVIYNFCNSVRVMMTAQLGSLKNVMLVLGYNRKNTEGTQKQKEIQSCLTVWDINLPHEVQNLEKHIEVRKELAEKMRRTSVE
Sequence of AURKA (human) (O14965 whole entry, looked up): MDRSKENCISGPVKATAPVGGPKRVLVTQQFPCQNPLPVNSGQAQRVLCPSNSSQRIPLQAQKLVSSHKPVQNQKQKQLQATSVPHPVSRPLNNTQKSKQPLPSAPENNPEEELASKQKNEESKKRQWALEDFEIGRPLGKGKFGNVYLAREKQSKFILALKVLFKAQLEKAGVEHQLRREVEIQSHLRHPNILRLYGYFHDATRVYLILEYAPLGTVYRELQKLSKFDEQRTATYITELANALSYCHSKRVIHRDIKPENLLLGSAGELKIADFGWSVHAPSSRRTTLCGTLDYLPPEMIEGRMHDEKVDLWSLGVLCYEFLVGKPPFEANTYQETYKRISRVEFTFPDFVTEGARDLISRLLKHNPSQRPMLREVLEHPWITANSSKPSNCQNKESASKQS
Sequence of RPS6KB2 (human) (Q9UBS0 whole entry, looked up): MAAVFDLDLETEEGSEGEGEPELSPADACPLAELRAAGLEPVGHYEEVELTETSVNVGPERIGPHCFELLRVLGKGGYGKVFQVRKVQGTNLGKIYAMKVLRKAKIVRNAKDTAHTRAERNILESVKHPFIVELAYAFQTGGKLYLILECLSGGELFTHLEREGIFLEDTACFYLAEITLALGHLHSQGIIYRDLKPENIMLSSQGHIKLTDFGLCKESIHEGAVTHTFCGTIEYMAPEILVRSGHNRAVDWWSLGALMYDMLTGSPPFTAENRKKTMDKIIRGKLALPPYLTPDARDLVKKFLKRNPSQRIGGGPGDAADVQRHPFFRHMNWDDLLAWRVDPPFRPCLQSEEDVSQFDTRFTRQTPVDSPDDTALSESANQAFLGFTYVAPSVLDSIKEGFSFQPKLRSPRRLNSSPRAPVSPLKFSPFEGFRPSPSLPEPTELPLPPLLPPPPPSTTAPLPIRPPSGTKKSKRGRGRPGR
Sequence of CSNK1A1 (human) (P48729 whole entry, looked up): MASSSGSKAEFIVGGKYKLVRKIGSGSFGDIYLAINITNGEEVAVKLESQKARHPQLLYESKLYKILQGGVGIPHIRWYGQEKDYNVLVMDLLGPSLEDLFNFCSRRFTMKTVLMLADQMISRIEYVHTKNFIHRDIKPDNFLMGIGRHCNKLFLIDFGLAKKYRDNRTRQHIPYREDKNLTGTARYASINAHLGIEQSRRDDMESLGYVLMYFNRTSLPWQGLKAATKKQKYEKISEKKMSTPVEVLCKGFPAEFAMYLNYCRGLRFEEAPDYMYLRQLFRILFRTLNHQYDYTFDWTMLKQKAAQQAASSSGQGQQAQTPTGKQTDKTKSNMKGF

Row | SMILES | residual activity [1] [%] | residual activity [2] [%] | residual activity [3] [%] | residual activity [4] [%] | residual activity [5] [%] | residual activity [6] [%] | residual activity [7] [%] | residual activity [8] [%] | residual activity [9] [%] | residual activity [10] [%] | residual activity [11] [%] | residual activity [12] [%] | residual activity [13] [%] | residual activity [14] [%] | residual activity [15] [%] | residual activity [16] [%] | residual activity [17] [%] | residual activity [18] [%] | residual activity [19] [%] | residual activity [20] [%] | further results
1 | Cn1cnc2cc3c(Nc4cccc(Br)c4)ncnc3cc21 | 100 | 106 | 87.8 | 94.2 | 99.6 | 93.2 | 107 | 102 | 82.9 | 71.5 | 93.6 | 99.5 | 100 | 101 | 70.4 | 88.6 | 68.2 | 90.1 | 104 | 130 | residual activity [21]: 94.3%; residual activity [22]: 96.6%; residual activity [23]: 93.3%; residual activity [24]: 85.3%; residual activity [25]: 87.6%; residual activity [26]: 100%; residual activity [27]: 90.8%; residual activity [28]: 95%; residual activity [29]: 98.8%; residual activity [30]: 103%; residual activity [31]: 97.6%; residual activity [32]: 105%; residual activity [33]: 79.4%; residual activity [34]: 96.8%; residual activity [35]: 96.1%; residual activity [36]: 111%; residual activity [37]: 94.2%; residual activity [38]: 103%; residual activity [39]: 97.6%; residual activity [40]: 45.7%
2 | COc1ccc(CNC(=O)Nc2ncc([N+](=O)[O-])s2)cc1 | 96.4 | 103 | 97.4 | 99.6 | 92.7 | 93.7 | 98.6 | 92.4 | 111 | 117 | 97.2 | 92.1 | 13.5 | 40.2 | 96.7 | 103 | 87.7 | 96.2 | 96.1 | 90.1 | residual activity [41]: 100%; residual activity [21]: 106%; residual activity [22]: 106%; residual activity [23]: 101%; residual activity [24]: 115%; residual activity [25]: 98.5%; residual activity [26]: 102%; residual activity [28]: 106%; residual activity [29]: 90%; residual activity [30]: 105%; residual activity [31]: 102%; residual activity [32]: 96.9%; residual activity [33]: 100%; residual activity [34]: 93.6%; residual activity [35]: 92.9%; residual activity [36]: 96.4%; residual activity [37]: 99.8%; residual activity [38]: 98.5%; residual activity [39]: 98.5%; residual activity [40]: 96.1%
3 | O=C1Cc2c([nH]c3ccc(Br)cc23)-c2ccccc2N1 | 103 | 104 | 99.7 | 97.4 | 77.8 | 99 | 83.4 | 95.1 | 96 | 96.6 | 97.4 | 97.9 | 5.87 | 19.7 | 85.5 | 105 | 78.7 | 98.6 | 89.6 | 94.6 | residual activity [41]: 100%; residual activity [21]: 88.3%; residual activity [22]: 74.3%; residual activity [23]: 88.5%; residual activity [24]: 87.6%; residual activity [25]: 96.8%; residual activity [26]: 98.7%; residual activity [28]: 97.8%; residual activity [29]: 94.9%; residual activity [30]: 98.9%; residual activity [31]: 94.9%; residual activity [32]: 102%; residual activity [33]: 94.9%; residual activity [34]: 99.4%; residual activity [35]: 99.6%; residual activity [36]: 90.1%; residual activity [37]: 81.8%; residual activity [38]: 94%; residual activity [39]: 82.8%; residual activity [40]: 59.1%
